Key:
[1] = Estimated ranitidine concentrations in portal vein and gastrointestinal tract; parameters: species or system human; conditions: highest clinical dose (300 mg) in a volume of 250 ml
Description: The concentrations were chosen to be representative for the maximal unbound plasma (Cmax) and the estimated maximal unbound portal vein concentration (Cmax port).

OCT3 = target: T1, OCT3 (Homo sapiens, UniProt O75751); experiment: Ranitidine uptake in HEK293 cells overexpressing OCT3; type: in vitro ADME
T1 construct: expressed in transfected cells; host or cells: HEK293 (Flp-In)
T1 sequence (O75751 1-556): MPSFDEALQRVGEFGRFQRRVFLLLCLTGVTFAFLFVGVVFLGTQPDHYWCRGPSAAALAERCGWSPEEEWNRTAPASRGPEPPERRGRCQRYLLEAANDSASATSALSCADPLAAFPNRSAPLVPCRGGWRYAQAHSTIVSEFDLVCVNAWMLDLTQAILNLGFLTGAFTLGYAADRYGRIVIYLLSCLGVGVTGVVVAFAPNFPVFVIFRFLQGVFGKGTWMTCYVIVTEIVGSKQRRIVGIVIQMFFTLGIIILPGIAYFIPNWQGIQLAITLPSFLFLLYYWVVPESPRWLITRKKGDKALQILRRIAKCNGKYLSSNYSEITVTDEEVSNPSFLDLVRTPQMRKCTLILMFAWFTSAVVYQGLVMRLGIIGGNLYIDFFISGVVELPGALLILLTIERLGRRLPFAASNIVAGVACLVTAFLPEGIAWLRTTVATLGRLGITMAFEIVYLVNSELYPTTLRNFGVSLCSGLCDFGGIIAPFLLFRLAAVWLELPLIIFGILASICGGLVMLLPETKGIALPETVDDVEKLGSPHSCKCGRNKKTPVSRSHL
Description: HEK293 or CHO cells overexpressing the human OCT1 alleles *1A (characterized by the amino acid substitution Met408Val), *1B, *1C (Phe160Leu), *1D (Pro341Leu/Met408Val), *2 (Met420del), *3 (Arg61Cys), *4 (Gly401Ser), *5 (Gly465Arg/Met420del), *6 (Cys88Arg/Met420del), *7 (Ser14Phe), *8A (Arg488Met), *8B (Arg488Met/Met408Val), *9 (Pro117Leu), *10 (Ser189Leu), *11 (Ile449Thr), *12 (Ser29Leu), or *13 (Thr245Met), the human OCT2 reference and variant alleles (Ala270Ser), human OCT3, and the control cells (transfected with the empty pcDNA5 vector) were generated by targeted chromosomal integration using the Flp-In™ System (Life Technologies, Darmstadt, Germany).
Six hundred thousand HEK293 or CHO cells were plated per well in 12-well plates (pre-coated with poly-D-lysine) and were grown for 48 hours to reach confluence. Cells were kept at 37°C and 5% CO2 in DMEM (HEK293) or RPMI (CHO), supplemented with 10% FCS, 100 U/ml penicillin, and 100 μg/ml streptomycin. Uptake experiments were performed at pH 7.4 using HBSS supplemented with 10 mM HEPES buffer (herein referred to as HBSS+). […]
For all transport measurements, the intracellular amount of substrate was normalized to the total amount of protein of the sample as measured using the bicinchoninic acid assay [49].
For quantification of intracellular substrates, the cell debris were removed by centrifugation at 17,000 x g for 10 min. […]

CNC(=C[N+](=O)[O-])NCCSCc1ccc(CN(C)C)o1 [ranitidine, Ranitidine]
[I]2, theoretical maximal gastrointestinal ranitidine concentration after oral administration [1]: 3800 µM | increase in ranitidine uptake, OCT3-overexpressing cells compared to the controls (OCT3; HEK293, 10-600 μM ranitidine, 2 min): up to 2 fold | OCT3-mediated uptake lower than the OCT1-mediated uptake of ranitidine (OCT3; at clinically relevant concentrations): more than 14 fold

Source: publication PMC5728534 (PLoS ONE, 2017)
